The subject of the data set is three-dimensional skin model (EPI-212SIT). Put plainly: Irritation test using three-dimensional skin model, MTT relative viability (Test Example 1-5). It is filed as cell-based. The settings on record: 60 min exposure, 42 h post-incubation, 0.5 and 1.0 mass % pitavastatin calcium, powder. On the procedure:
The following <5-A> to <5-G> were used as test materials to perform exposure of the epidermis to the test materials and irritation evaluation in the following manner in accordance with OECD TG439 (In Vitro skin irritation test) using a kit for skin irritation test approved by OECD (EPI-212SIT manufactured by KURABO).
The epidermis in the kit was pre-incubated overnight, and then 30 μL of the test material was added to the stratum corneum side of the epidermis, and a nylon mesh was placed with tweezers to expose the stratum corneum to the test material. When the test material was solid (<5-E> described below), 25 μL of DPBS was added to the stratum corneum, and immediately after that, 25 mg of the solid material was added to the stratum corneum to expose the stratum corneum to the test material. After 60 minutes, the test material was completely removed by washing. Then, post-incubation was performed for 42 hours. In the process of the post-incubation, a culture medium was replaced once after a lapse of 24 hours. After the post-incubation, a reaction with an MTT solution was performed for 3 hours using an MTT assay kit (MTT-100-JP manufactured by KURABO), and a formazan dye produced by mitochondrial metabolism was extracted to measure the OD value. Based on the measurement result, relative viability was calculated by comparison with a negative control (<5-G> described below).

Consider one compound from US10258694B2, “Skin external preparation and skin irritation-reducing method” (priority 2014, dated 2019).

As for `O=C([O-])C[C@H](O)C[C@H](O)/C=C/c1c(C2CC2)nc2ccccc2c1-c1ccc(F)cc1.O=C([O-])C[C@H](O)C[C@H](O)/C=C/c1c(C2CC2)nc2ccccc2c1-c1ccc(F)cc1.[Ca+2]` [pitavastatin calcium], the “relative viability (vs negative control DPBS)” value is “reduced in a manner dependent on the concentration”.
